Experimental data: US20240358735A1, “THERAPEUTIC COMPOSITIONS AND RELATED METHODS” (BOYCE THOMPSON INSTITUTE FOR PLANT RESEARCH, INC., priority 2021, published 2024)

Experiments:
[1] = test system: proteasome alpha and beta subunits; assay: Thermal proteome profiling (TPP) of C. elegans lysates; assay type: binding; details: compound 0.1 mM; for thermal stability of majority detected proteasome alpha and beta subunits (TPP): C. elegans lysate 1 mg/mL, 15 min room temperature, heated; for thermal stability of proteasome subunit PBS-1 (TPP): FIG. 36, C. elegans lysate
From the text: (§1) To investigate the cellular interactors of MOGLs, two independent approaches were applied: thermal proteome profiling (TPP) and limited proteolysis-coupled mass spectrometry (LiP-MS), to uncover binding events upon compound treatment of C. elegans lysates using MOGLs of the sngl-class as an example. […] Moreover, there were multiple peptides from proteasome alpha subunits and one peptide from the beta unit that were differential, with absence-present contrast, in the LiP-MS experiment (FIG. 35). Results from these two assays which reflect distinct biophysical properties of protein-small molecule binding, strongly support interaction between sngl #1 and sngl #2 with the proteasome.
C. elegans lysate preparation and compound incubation. Synchronized pah-1(syb3596); tph-1(mg280) double knockout C. elegans were grown with ΔtnaA E. coli (JW3686-7) for two generations; growth conditions and harvesting procedures were as described in the ‘Nematode cultures’ section above. Worms were lysed by sonication with lysis buffer (25 mM Tris pH 7.5, 150 mM NaCl, 1.5 mM MgCl2.1 mM phenylmethylsulfonyl fluoride, 1× protease inhibitor cocktail (Roche), 1 mM sodium fluoride) for 5 min (3 s on/off pulse cycle at Amp 100). Protein concentration was determined by Bradford assay (MilliporeSigma) and diluted to 1 mg/mL by lysis buffer. To each aliquot of lysate was added compound (sngl #1, sngl #2, N-acetylserotonin, and solvent (ethanol) control (Mock)) to a final concentration of 0.1 mM and the mixtures were shaken for 15 min at room temperature.
Thermal proteome profiling (TPP) sample preparation. Methods were modified from published protocol (Franken, H., T. et al. Nature Protocols 10(10): 1567-1593). Lysate-compound mixture were aliquoted into 0.2-mL PCR tubes, heated at specified temperatures for 3 min using a Thermal Cycler (BioRad), centrifuged at 16,000 g at 4° C. for 5 min, and the supernatant were transferred into Eppendorf tubes. Four volumes of prechilled (−20° C.) acetone were added to each sample for precipitation of proteins overnight. Samples were centrifuged at 16,000 g at 4° C. for 20 min, washed once by methanol, and the resulting protein pellets were dissolved in urea buffer (50 mM ammonium bicarbonate, 2 M thiourea, 6 M urea). To digest proteins for mass spectrometry analysis, proteins were first reduced by dithiothreitol (final concentration 5 mM) for 30 min at room temperature, alkylated by iodoacetamide (final concentration 15 mM) for 30 min at room temperature in the dark, digested by LysC/Trypsin Mix (Promega) (enzyme/substrate=1/30, w/w) based on manufacturer's instructions. […] Peptides were measured by nanoHPLC-MS/MS by standard methods.

[2] = test system: proteasome alpha and beta subunits; assay: Limited proteolysis-coupled mass spectrometry (LiP-MS) of C. elegans lysates; assay type: binding; details: FIG. 35; C. elegans lysate, compound 0.1 mM, proteinase K
From the text: as §1
To obtain mechanistic insight into the binding of proteasome with sngl #1/sngl #2, LiP-MS data were analyzed to reveal peptides around sub-structures of proteins where the binding occurs.
C. elegans lysate preparation and compound incubation. Synchronized pah-1(syb3596); tph-1(mg280) double knockout C. elegans were grown with ΔtnaA E. coli (JW3686-7) for two generations; growth conditions and harvesting procedures were as described in the ‘Nematode cultures’ section above. […] Protein concentration was determined by Bradford assay (MilliporeSigma) and diluted to 1 mg/mL by lysis buffer. […]

## CC(=O)NCCc1c[nH]c2ccc(O[C@@H]3O[C@H](CO)[C@@H](O)[C@H](OP(=O)(O)O)[C@H]3O)cc12 [sngl #2, (2S,3R,4S,5R,6R)-2-((3-(2-acetamidoethyl)-1H-indol-5-yl)oxy)-3,5-dihydroxy-6-(hydroxymethyl)tetrahydro-2H-pyran-4-yl dihydrogen phosphate]
[1]
  thermal stability of majority detected proteasome alpha and beta subunits (TPP): significantly change the thermal stability
  thermal stability of proteasome subunit PBS-1 (TPP): affect the thermal stability
[2]
  PAS- or PBS-derived peptides detected in LiP-MS: indicative of specific binding to PAS and PBS

## CC(=O)NCCc1c[nH]c2ccc(O[C@@H]3O[C@H](CO)[C@@H](O)[C@H](O)[C@H]3O)cc12 [sngl #1, N-(2-(5-(((2S,3R,4S,5S,6R)-3,4,5-trihydroxy-6-(hydroxymethyl)tetrahydro-2H-pyran-2-yl)oxy)-1H-indol-3-yl)ethyl)acetamide]
[1]
  thermal stability of majority detected proteasome alpha and beta subunits (TPP): significantly change the thermal stability
  thermal stability of proteasome subunit PBS-1 (TPP): affect the thermal stability
[2]
  PAS- or PBS-derived peptides detected in LiP-MS: indicative of specific binding to PAS and PBS
